These results are taken from patent US20190010158A1, “ANTITUMOR EFFECT POTENTIATOR COMPRISING PYRROLOPYRIMIDINE COMPOUND” (TAIHO PHARMACEUTICAL CO., LTD, priority 2015, published 2019).

The subject of assay [1] is tumor cell lines shown in Table 24. Put plainly: Example 2: combined use with tyrosine kinase inhibitor, cell growth inhibition test (IC50 ratio, CI). As to conditions: for Comprehensive Evaluation: combined use with Reference Example Compound 55. Type of assay: cell-based.
Assay [2] concerns human acute T lymphoblastic leukemia CCRF-CEM cell lines. Put plainly: Cell growth inhibition 1 (CellTiter-Glo). Format: cell-based. Conditions: culture with test compound 72 hours. A general note: ATP-based viability assays read luminescence as a measure of living cells.
The mark [3] stands for this setting: SNU-16, Reference Example Compound 55:other compound 1:3.3, at ED50.
Setting [4] is: SNU-16, Reference Example Compound 55:other compound 1:10, at ED50.

A word on the pIC50: it is −log10 of the IC50, conventionally taken in molar units. A lower pIC50 goes with a high IC50.

Molecules are shown by their SMILES. pIC50: −log10 of the molar value. Where “and” joins values, the source holds several entries; their conditions need not be identical. Equal values may be shown once. Read-outs that look alike come from different tables or passages of the source.

As for `Cc1cc(Nc2ncnc3ccc(NC4=NC(C)(C)CO4)cc23)ccc1Oc1ccn2ncnc2c1` [ARRY380], the CI in assay [1] (A431, Reference Example Compound 55:other compound 1:36 (only ratio calculated), at ED50) is 0.34. Moreover, the “Comprehensive Evaluation” value in assay [1] (A431) was “Synergism (0.3-0.7)”.

In the case of `CN(C)C/C=C/C(=O)Nc1cc2c(Nc3ccc(F)c(Cl)c3)ncnc2cc1O[C@H]1CCOC1` [Afatinib, afatinib], the CI in assay [1] (A549, Reference Example Compound 55:other compound 1:1.7, at ED50) worked out at 0.70; in assay [1] (A549, Reference Example Compound 55:other compound 1:5, at ED50), 0.48. Also, the “Comprehensive Evaluation” value in assay [1] (A549) is given as “Synergism (0.3-0.7)”.

Take `CCc1cc2c(cc1N1CCC(N3CCOCC3)CC1)C(C)(C)c1[nH]c3cc(C#N)ccc3c1C2=O` [Alectinib, alectinib]: the CI is reported as 0.58 in assay [1] (MM.1S, Reference Example Compound 55:other compound 1:3000, at ED50) and 0.59 in assay [1] (MM.1S, Reference Example Compound 55:other compound 1:9000, at ED50). Besides, in assay [1] (MM.1S), the “Comprehensive Evaluation” value is “Synergism (0.3-0.7)”.

Take `CC1(COc2ccc3c(c2)ncn3-c2ccc3cccc(N4CCC(N)CC4)c3n2)COC1` [Crenolanib, crenolanib]: the CI in assay [1] (MV4-11, Reference Example Compound 55:other compound 1:3.7, at ED50) was 0.91; in assay [1] (MV4-11, Reference Example Compound 55:other compound 1:11, at ED50), 0.83. Besides, the “Comprehensive Evaluation” value in assay [1] (MV4-11) is “Additive (0.9-1.10)”.

For `C[C@@H](Oc1cc(-c2cnn(C3CCNCC3)c2)cnc1N)c1c(Cl)ccc(F)c1Cl` [Crizotinib, crizotinib], the CI came out at 0.87 in assay [1] (MM.1S, Reference Example Compound 55:other compound 1:37, at ED50) and 0.74 in assay [1] (MM.1S, Reference Example Compound 55:other compound 1:111, at ED50). Also, the “Comprehensive Evaluation” value in assay [1] (MM.1S) is “Slight”.

`Cc1nc(Nc2ncc(C(=O)Nc3c(C)cccc3Cl)s2)cc(N2CCN(CCO)CC2)n1` [Dasatinib, dasatinib]: the CI in assay [1] (HCT116, Reference Example Compound 55:other compound 1:300, at ED50) was found to be 0.83; in assay [1] (HCT116, Reference Example Compound 55:other compound 1:900, at ED50), 0.96. For the same compound, in assay [1] (HCT116), the “Comprehensive Evaluation” value is on record as “Additive (0.9-1.10)”.

For `C#Cc1cccc(Nc2ncnc3cc(OCCOC)c(OCCOC)cc23)c1` [Erlotinib, erlotinib], the CI turned out to be 0.45 in assay [1] and 0.54 in assay [1] (A549, Reference Example Compound 55:other compound 1:10, at ED50). Also, in assay [1] (A549), the “Comprehensive Evaluation” value is “Synergism (0.3-0.7)”.

Regarding `COc1cc2ncnc(Nc3ccc(F)c(Cl)c3)c2cc1OCCCN1CCOCC1` [Gefitinib, gefitinib], the CI stood at 0.33 in assay [1] (A431, Reference Example Compound 55:other compound 1:5, at ED50) and 0.32 in assay [1] (A431, Reference Example Compound 55:other compound 1:15, at ED50). The “Comprehensive Evaluation” value in assay [1] (A431) is “Synergism (0.3-0.7)”.

Take `Cc1ccc(NC(=O)c2ccc(CN3CCN(C)CC3)cc2)cc1Nc1nccc(-c2cccnc2)n1` [Imatinib, imatinib]: the CI in assay [1] was 0.31 and 0.35. Besides, in assay [1] (A549), the “Comprehensive Evaluation” value is on record as “Synergism (0.3-0.7)”.

Turning to `CS(=O)(=O)CCNCc1ccc(-c2ccc3ncnc(Nc4ccc(OCc5cccc(F)c5)c(Cl)c4)c3c2)o1` [Lapatinib, lapatinib], the CI in assay [1] (A431, Reference Example Compound 55:other compound 1:10, at ED50) is 0.15; in assay [1] (A431, Reference Example Compound 55:other compound 1:30, at ED50), 0.19. Also, the “Comprehensive Evaluation” value in assay [1] (A431) is reported as “Strong”.

For the compound `COc1cc2nccc(Oc3ccc(NC(=O)NC4CC4)c(Cl)c3)c2cc1C(N)=O` [Lenvatinib, lenvatinib], the CI turned out to be 0.44 in assay [1] (setting [3]) and 0.63 in assay [1] (setting [4]). In assay [1] (SNU-16), the “Comprehensive Evaluation” value is given as “Synergism (0.3-0.7)”.

Regarding `Cc1ccc(NC(=O)c2ccc(CN3CCN(C)CC3)cc2)cc1Nc1nc(-c2cccnc2)cs1` [Masitinib, masitinib], the CI turned out to be 0.31 in assay [1] (MOLT-4, Reference Example Compound 55:other compound 1:33, at ED50) and 0.20 in assay [1] (MOLT-4, Reference Example Compound 55:other compound 1:100, at ED50). Also, in assay [1] (MOLT-4), the “Comprehensive Evaluation” value is reported as “Synergism (0.3-0.7)”.

Regarding `C=CC(=O)Nc1cc(Nc2nccc(-c3cn(C)c4ccccc34)n2)c(OC)cc1N(C)CCN(C)C` [Osimertinib, osimertinib], the CI in assay [1] (NCI-H1975, Reference Example Compound 55:other compound 1:0.01, at ED50) is given as 0.96; in assay [1] (NCI-H1975, Reference Example Compound 55:other compound 1:0.03, at ED50), 0.99. In addition, the “Comprehensive Evaluation” value in assay [1] (NCI-H1975) is “Additive (0.9-1.10)”.

As to `Cc1ccc(Nc2nccc(N(C)c3ccc4c(C)n(C)nc4c3)n2)cc1S(N)(=O)=O` [Pazopanib, pazopanib], the CI stood at 0.71 in assay [1] (SNU-16, Reference Example Compound 55:other compound 1:30, at ED50) and 0.52 in assay [1] (SNU-16, Reference Example Compound 55:other compound 1:90, at ED50).

`Cc1ccc(C(=O)Nc2ccc(CN3CCN(C)CC3)c(C(F)(F)F)c2)cc1C#Cc1cnc2cccnn12` [Ponatinib, ponatinib]: in assay [1], the CI is 0.46 and 0.36.

For `CC(C)(C)c1cc(NC(=O)Nc2ccc(-c3cn4c(n3)sc3cc(OCCN5CCOCC5)ccc34)cc2)no1` [Quizartinib, quizartinib], the CI in assay [1] (MOLT-4, Reference Example Compound 55:other compound 1:111, at ED50) amounted to 0.39; in assay [1] (MOLT-4, Reference Example Compound 55:other compound 1:333, at ED50), 0.44. In assay [1] (MOLT-4), the “Comprehensive Evaluation” value is reported as “Synergism (0.3-0.7)”.

Regarding `Nc1ncnc2c1c(C#CCc1c(F)cccc1F)cn2[C@@H]1O[C@H](CNS(N)(=O)=O)[C@@H](O)[C@H]1O` [Reference Example 31, 4-Amino-5-[3-(2,6-difluorophenyl)prop-1-ynyl]-7-[(2R,3R,4S,5R)-3,4-dihydroxy-5-[(sulfamoylamino)methyl]tetrahydrofuran-2-yl]pyrrolo[2,3-d]pyrimidine], the pIC50 in assay [2] was 6.22.

In assay [2], `Nc1ncnc2c1c(C#Cc1c(F)cc(NCCO)cc1F)cn2[C@@H]1O[C@H](CNS(N)(=O)=O)[C@@H](O)[C@H]1O` [Reference Example 32, 4-Amino-5-[2-[2,6-difluoro-4-(2-hydroxyethylamino)phenyl]ethynyl]-7-[(2R,3R,4S,5R)-3,4-dihydroxy-5-[(sulfamoylamino)methyl]tetrahydrofuran-2-yl]pyrrolo[2,3-d]pyrimidine] showed a pIC50 of 5.60.

In turn, `CCOc1cc(N2CCOCC2)cc(F)c1C#Cc1cn([C@@H]2O[C@H](CNS(N)(=O)=O)[C@@H](O)[C@H]2O)c2ncnc(N)c12` [Reference Example 34, 4-[4-[2-[4-Amino-7-[(2R,3R,4S,5R)-3,4-dihydroxy-5-[(sulfamoylamino)methyl]tetrahydrofuran-2-yl]pyrrolo[2,3-d]pyrimidin-5-yl]ethynyl]-3-ethoxy-5-fluoro-phenyl]morpholine] showed a pIC50 in assay [2] of 8.21.

Take `CCOc1cc(F)cc(F)c1C#Cc1cn([C@@H]2O[C@H](CNS(N)(=O)=O)[C@@H](O)[C@H]2O)c2ncnc(N)c12` [Reference Example 35, 4-Amino-7-[(2R,3R,4S,5R)-3,4-dihydroxy-5-[(sulfamoylamino)methyl]tetrahydrofuran-2-yl]-5-[2-(2-ethoxy-4,6-difluoro-phenyl)ethynyl]pyrrolo[2,3-d]pyrimidine]: the pIC50 in assay [2] was 8.70.

In assay [2], `Nc1ncnc2c1c(C#CCc1ccccc1F)cn2[C@@H]1O[C@H](CNS(N)(=O)=O)[C@@H](O)[C@H]1O` [Reference Example 36, 4-Amino-7-[(2R,3R,4S,5R)-3,4-dihydroxy-5-[(sulfamoylamino)methyl]tetrahydrofuran-2-yl]-5-[3-(2-fluorophenyl)prop-1-ynyl]pyrrolo[2,3-d]pyrimidine] had a pIC50 of 6.60.

For the compound `Nc1ncnc2c1c(C#Cc1c(F)cc(N3CCSCC3)cc1F)cn2[C@@H]1O[C@H](CNS(N)(=O)=O)[C@@H](O)[C@H]1O` [Reference Example 37, 4-[4-[2-[4-Amino-7-[(2R,3R,4S,5R)-3,4-dihydroxy-5-[(sulfamoylamino)methyl]tetrahydrofuran-2-yl]pyrrolo[2,3-d]pyrimidin-5-yl]ethynyl]-3,5-difluoro-phenyl]thiomorpholine], in assay [2], the pIC50 is 8.22.

`Nc1ncnc2c1c(C#Cc1c(F)cc(N3CCCC(O)C3)cc1F)cn2[C@@H]1O[C@H](CNS(N)(=O)=O)[C@@H](O)[C@H]1O` (stereo partly drawn) [Reference Example 38, 4-Amino-5-[2-[2,6-difluoro-4-(3-hydroxy-1-piperidyl)phenyl]ethynyl]-7-[(2R,3R,4S,5R)-3,4-dihydroxy-5-[(sulfamoylamino)methyl]tetrahydrofuran-2-yl]pyrrolo[2,3-d]pyrimidine] had a pIC50 in assay [2] of 7.85.

Turning to `Nc1ncnc2c1c(C#Cc1c(F)cc(N3CCC3)cc1F)cn2[C@@H]1O[C@H](CNS(N)(=O)=O)[C@@H](O)[C@H]1O` [Reference Example 43, 4-amino-5-[2-[4-(azetidin-1-yl)-2,6-difluoro-phenyl]ethynyl]-7-[(2R,3R,4S,5R)-3,4-dihydroxy-5-[(sulfamoylamino)methyl]tetrahydrofuran-2-yl]pyrrolo[2,3-d]pyrimidine], in assay [2], the pIC50 was 8.57.

As for `CNC(=O)c1cc(Oc2ccc(NC(=O)Nc3ccc(Cl)c(C(F)(F)F)c3)c(F)c2)ccn1` [Regorafenib, regorafenib], the CI in assay [1] (SNU-16, Reference Example Compound 55:other compound 1:15, at ED50) is listed as 0.88; in assay [1] (SNU-16, Reference Example Compound 55:other compound 1:45, at ED50), 1.06. Also, the “Comprehensive Evaluation” value in assay [1] (SNU-16) is given as “Additive (0.9-1.10)”.

As to `N#CC[C@H](C1CCCC1)n1cc(-c2ncnc3[nH]ccc23)cn1` [Ruxolitinib, ruxolitinib], the CI in assay [1] was 0.82.

As to `CCN(CC)CCNC(=O)c1c(C)[nH]c(/C=C2\C(=O)Nc3ccc(F)cc32)c1C` [Sunitinib, sunitinib], the results for the CI in assay [1] (setting [3]) and in assay [1] (setting [4]) were 0.86 and 0.91, respectively. For the same compound, the “Comprehensive Evaluation” value in assay [1] (SNU-16) was “Additive (0.9-1.10)”.
